Literature values in patent US20030175349A1, “Pharmaceutical compostion for extended/sustained release of a therapeutically active ingredient” (COUNCIL OF SCIENTIFIC AND INDUSTRIAL RESEARCH, priority 2002, published 2003).

Row | parts of water in which 1 part is soluble (at 20° C.) | solubility in water (in words) | Structure (SMILES)
1 | 14 parts of water |  | CC(=O)OCC(COC(C)=O)OC(C)=O [triacetin]
2 |  | practically insoluble in water | Cc1ccc(S(=O)(=O)NC(=O)NN2CC3CCCC3C2)cc1 (stereo not drawn) [Gliclazide, gliclazide]
3 |  | slightly soluble in water | CC(=O)Oc1ccccc1C(=O)O [Aspirin, aspirin]
